Values of other authors, collected in US20070248669A1, “Oral sustained release formulation” (priority 2006, published 2007).
Structures can show the parent of a compound that is named as a salt.

How the values were obtained:
[1] = daily multiple dosing regimen, patients under treatment
[2] = compressed tablets, therapeutic dosing

patients experiencing nausea [1]: about forty five
patients with vomiting [1]: about seventeen
time after administration until normal plasma levels are approached [2]: about twelve
SMILES: COc1ccc(C(CN(C)C)C2(O)CCCCC2)cc1 (stereo not drawn) [venlafaxine hydrochloride, 1-[2-(dimethylamino)-1-(4-methoxyphenyl)-ethyl]cyclohexanol]
